Results from ChEMBL document CHEMBL1255342, “Efficacy of benzoxazinorifamycins in a mouse model of Chlamydia pneumoniae lung infection” (2008).
Values after ≈ are worked out from the molar mass of the structure shown. Values joined by “and” are separate entries in the source; they are usually repeats but may differ in a detail not shown here. Equal values may be shown once.

What was measured:
Assay type in all cases: functional
Chlamydia pneumoniae [1] = assay: Antimicrobial activity against Chlamydia pneumoniae AR39 infected in C57BL/6J mouse at 1 mg/kg, ip assessed as bacterial load measured on day 10 post infection relative to control; details: route intraperitoneal
Chlamydia pneumoniae [2] = assay: Antimicrobial activity against Chlamydia pneumoniae AR39 infected in C57BL/6J mouse at 3 mg/kg, ip assessed as bacterial load measured on day 10 post infection relative to control; details: route intraperitoneal
Chlamydia pneumoniae [3] = assay: Antimicrobial activity against Chlamydia pneumoniae TW-183 after 72 hrs by twofold dilution method; details: TW-183, 72 h

Compound | Efficacy (Chlamydia pneumoniae [1]) | Efficacy (Chlamydia pneumoniae [2]) | MIC (Chlamydia pneumoniae [3]) | Efficacy (Chlamydia pneumoniae [1]; 1 mg/kg) | Efficacy (Chlamydia pneumoniae [2]; 3 mg/kg)
CO[C@H]1/C=C/O[C@@]2(C)Oc3c(C)c(O)c4c(=O)c(c5oc6cc(N7CC(N(C)C)C7)cc(O)c6nc-5c4c3C2=O)NC(=O)/C(C)=C\C=C\[C@H](C)[C@H](O)[C@@H](C)[C@@H](O)[C@@H](C)[C@H](OC(C)=O)[C@@H]1C | 0.06% | 0.025% | 0.064 ng/mL (≈ 0.0712 nM) | – | –
CO[C@H]1/C=C/O[C@@]2(C)Oc3c(C)c(O)c4c(=O)c(c5oc6cc(N7CC8CCC(C7)N8C)cc(O)c6nc-5c4c3C2=O)NC(=O)/C(C)=C\C=C\[C@H](C)[C@H](O)[C@@H](C)[C@@H](O)[C@@H](C)[C@H](OC(C)=O)[C@@H]1C | 0.14% | <0.025% | 0.125 ng/mL (≈ 0.135 nM) | – | –
CO[C@H]1/C=C/O[C@@]2(C)Oc3c(C)c(O)c4c(=O)c(c5oc6cc(N7CCN(CC8CC8)CC7)cc(O)c6nc-5c4c3C2=O)NC(=O)/C(C)=C\C=C\[C@H](C)[C@H](O)[C@@H](C)[C@@H](O)[C@@H](C)[C@H](O)[C@@H]1C | 1.34% | 15.51% | 0.064 ng/mL (≈ 0.0713 nM) | – | –
CO[C@H]1/C=C/O[C@@]2(C)Oc3c(C)c(O)c4c(=O)c(c5oc6cc(N7CCC(C)(N(C)C)CC7)cc(O)c6nc-5c4c3C2=O)NC(=O)/C(C)=C\C=C\[C@H](C)[C@H](O)[C@@H](C)[C@@H](O)[C@@H](C)[C@H](OC(C)=O)[C@@H]1C | 0.49% | 0.56% | – | – | –
CO[C@H]1/C=C/O[C@@]2(C)Oc3c(C)c(O)c4c(=O)c(c5oc6cc(N7CCC(C)(C)N(C)C(C)(C)C7)cc(O)c6nc-5c4c3C2=O)NC(=O)/C(C)=C\C=C\[C@H](C)[C@H](O)[C@@H](C)[C@@H](O)[C@@H](C)[C@H](OC(C)=O)[C@@H]1C | 0.03% | <0.025% | 0.064 ng/mL (≈ 0.066 nM) | – | –
CO[C@H]1/C=C/O[C@@]2(C)Oc3c(C)c(O)c4c(=O)c(c5oc6cc(N7CCN(C)CC7)cc(O)c6nc-5c4c3C2=O)NC(=O)/C(C)=C\C=C\[C@H](C)[C@H](O)[C@@H](C)[C@@H](O)[C@@H](C)[C@H](O)[C@@H]1C | – | – | 0.125 ng/mL (≈ 0.146 nM) | 1.26% and 6.04% | 0.44% and 0.18%
CO[C@H]1/C=C/O[C@@]2(C)Oc3c(C)c(O)c4c(=O)c(c5oc6cc(N7CCN(CC(C)C)CC7)cc(O)c6nc-5c4c3C2=O)NC(=O)/C(C)=C\C=C\[C@H](C)[C@H](O)[C@@H](C)[C@@H](O)[C@@H](C)[C@H](OC(C)=O)[C@@H]1C [RIFALAZIL] | 0.24% | 1.14% | 0.25 ng/mL (≈ 0.266 nM) | – | –
